Measured values from the NIST ThermoML archive (doi:10.1021/je049743g).
Several values for one entry are separate records, joined by “and”; a condition that tells them apart may be missing. Identical values can stand only once. Numbers after ± are expanded uncertainties.

Test: wn = mass fraction of the nth substance listed
Settings: Capillary rise

With FC(C(F)(F)F)C(F)(F)F [1,1,1,2,3,3,3-heptafluoropropane] + FCF the surface tension liquid-gas (252.66 K, w2 = 0.3988) was 12.74 ± 0.31 mN/m and 12.77 ± 0.31 mN/m, the surface tension liquid-gas (252.82 K, w2 = 0.3003) was 12.41 ± 0.3 mN/m and the surface tension liquid-gas (254.68 K, w2 = 0.3983) was 12.35 ± 0.31 mN/m and 12.37 ± 0.31 mN/m. The surface tension liquid-gas (254.83 K, w2 = 0.544) was 12.71 ± 0.31 mN/m, the surface tension liquid-gas (255.1 K, w2 = 0.2998) was 12.14 ± 0.31 mN/m and 12.13 ± 0.31 mN/m and the surface tension liquid-gas (256.92 K, w2 = 0.354) was 11.85 ± 0.31 mN/m. The surface tension liquid-gas (257.09 K, w2 = 0.5434) was 12.37 ± 0.31 mN/m and 12.38 ± 0.31 mN/m, the surface tension liquid-gas (257.1 K, w2 = 0.2993) was 11.77 ± 0.31 mN/m and 11.79 ± 0.31 mN/m and the surface tension liquid-gas (257.1 K, w2 = 0.3977) was 12.02 ± 0.31 mN/m and 12.03 ± 0.31 mN/m. The surface tension liquid-gas (258.83 K, w2 = 0.5429) was 11.97 ± 0.31 mN/m, the surface tension liquid-gas (258.84 K, w2 = 0.7282) was 12.63 ± 0.31 mN/m and 12.65 ± 0.31 mN/m and the surface tension liquid-gas (258.88 K, w2 = 0.3972) was 11.74 ± 0.3 mN/m. For the same compound, the surface tension liquid-gas (259 K, w2 = 0.2988) was 11.52 ± 0.3 mN/m and 11.51 ± 0.3 mN/m, the surface tension liquid-gas (260.89 K, w2 = 0.3528) was 11.26 ± 0.3 mN/m and 11.25 ± 0.3 mN/m and the surface tension liquid-gas (260.99 K, w2 = 0.5423) was 11.65 ± 0.3 mN/m. The surface tension liquid-gas (261.01 K, w2 = 0.2982) was 11.3 ± 0.31 mN/m, the surface tension liquid-gas (261.05 K, w2 = 0.3966) was 11.49 ± 0.31 mN/m and 11.48 ± 0.31 mN/m and the surface tension liquid-gas (262.75 K, w2 = 0.2977) was 11 ± 0.31 mN/m and 10.97 ± 0.31 mN/m. For the same compound, the surface tension liquid-gas (262.79 K, w2 = 0.3521) was 11.06 ± 0.3 mN/m, the surface tension liquid-gas (262.8 K, w2 = 0.7274) was 12.12 ± 0.31 mN/m and 12.08 ± 0.31 mN/m and the surface tension liquid-gas (262.85 K, w2 = 0.3961) was 11.14 ± 0.3 mN/m. For the same compound, the surface tension liquid-gas (262.96 K, w2 = 0.5417) was 11.34 ± 0.31 mN/m, the surface tension liquid-gas (262.98 K, w2 = 0.3961) was 11.14 ± 0.3 mN/m and 11.18 ± 0.31 mN/m and the surface tension liquid-gas (264.66 K, w2 = 0.727) was 11.63 ± 0.31 mN/m and 11.62 ± 0.31 mN/m. For the same compound, the surface tension liquid-gas (264.68 K, w2 = 0.5412) was 11.11 ± 0.31 mN/m and 11.09 ± 0.31 mN/m, the surface tension liquid-gas (264.87 K, w2 = 0.3955) was 10.9 ± 0.31 mN/m and 10.92 ± 0.31 mN/m and the surface tension liquid-gas (264.88 K, w2 = 0.3514) was 10.71 ± 0.31 mN/m and 10.75 ± 0.31 mN/m. The surface tension liquid-gas (264.96 K, w2 = 0.297) was 10.65 ± 0.31 mN/m, the surface tension liquid-gas (266.51 K, w2 = 0.2966) was 10.42 ± 0.3 mN/m and 10.44 ± 0.3 mN/m and the surface tension liquid-gas (266.75 K, w2 = 0.5405) was 10.75 ± 0.3 mN/m and 10.74 ± 0.3 mN/m. For the same compound, the surface tension liquid-gas (266.88 K, w2 = 0.3507) was 10.44 ± 0.3 mN/m and 10.47 ± 0.3 mN/m, the surface tension liquid-gas (267.04 K, w2 = 0.3948) was 10.5 ± 0.31 mN/m and 10.52 ± 0.31 mN/m and the surface tension liquid-gas (268.37 K, w2 = 0.296) was 10.2 ± 0.3 mN/m and 10.23 ± 0.3 mN/m. The surface tension liquid-gas (268.37 K, w2 = 0.54) was 10.53 ± 0.31 mN/m and 10.52 ± 0.31 mN/m, the surface tension liquid-gas (268.63 K, w2 = 0.7261) was 11.05 ± 0.31 mN/m and 11 ± 0.31 mN/m and the surface tension liquid-gas (268.72 K, w2 = 0.3943) was 10.33 ± 0.3 mN/m. The surface tension liquid-gas (268.79 K, w2 = 0.35) was 10.2 ± 0.3 mN/m and 10.23 ± 0.3 mN/m, the surface tension liquid-gas (270.7 K, w2 = 0.3936) was 10.06 ± 0.31 mN/m and 10.03 ± 0.31 mN/m and the surface tension liquid-gas (270.78 K, w2 = 0.3493) was 9.92 ± 0.3 mN/m. For the same compound, the surface tension liquid-gas (270.78 K, w2 = 0.5392) was 10.1 ± 0.31 mN/m, the surface tension liquid-gas (270.81 K, w2 = 0.2952) was 9.83 ± 0.3 mN/m and 9.86 ± 0.3 mN/m and the surface tension liquid-gas (272.17 K, w2 = 0.7252) was 10.38 ± 0.3 mN/m. For the same compound, the surface tension liquid-gas (272.9 K, w2 = 0.2945) was 9.56 ± 0.3 mN/m and 9.6 ± 0.3 mN/m, the surface tension liquid-gas (272.91 K, w2 = 0.7249) was 10.28 ± 0.31 mN/m and the surface tension liquid-gas (273.15 K, w2 = 0.3928) was 9.64 ± 0.31 mN/m and 9.66 ± 0.31 mN/m. For the same compound, the surface tension liquid-gas (273.15 K, w2 = 0.5383) was 9.73 ± 0.3 mN/m, the surface tension liquid-gas (273.6 K, w2 = 0.3482) was 9.51 ± 0.31 mN/m and the surface tension liquid-gas (275.16 K, w2 = 0.2937) was 9.29 ± 0.3 mN/m and 9.31 ± 0.3 mN/m. For the same compound, the surface tension liquid-gas (275.3 K, w2 = 0.392) was 9.26 ± 0.3 mN/m and 9.29 ± 0.3 mN/m, the surface tension liquid-gas (275.48 K, w2 = 0.5375) was 9.44 ± 0.3 mN/m and the surface tension liquid-gas (275.5 K, w2 = 0.3474) was 9.19 ± 0.3 mN/m and 9.23 ± 0.3 mN/m. The surface tension liquid-gas (275.5 K, w2 = 0.7242) was 9.87 ± 0.3 mN/m and 9.89 ± 0.3 mN/m, the surface tension liquid-gas (276.85 K, w2 = 0.2931) was 9.01 ± 0.3 mN/m and 9.05 ± 0.3 mN/m and the surface tension liquid-gas (277.27 K, w2 = 0.3913) was 9.02 ± 0.3 mN/m and 9.06 ± 0.3 mN/m. The surface tension liquid-gas (277.3 K, w2 = 0.7237) was 9.66 ± 0.3 mN/m and 9.65 ± 0.3 mN/m, the surface tension liquid-gas (277.39 K, w2 = 0.3466) was 8.95 ± 0.3 mN/m and 8.98 ± 0.3 mN/m and the surface tension liquid-gas (277.43 K, w2 = 0.5367) was 9.29 ± 0.3 mN/m. The surface tension liquid-gas (279.39 K, w2 = 0.7231) was 9.32 ± 0.31 mN/m and 9.34 ± 0.31 mN/m, the surface tension liquid-gas (279.42 K, w2 = 0.2921) was 8.71 ± 0.3 mN/m and the surface tension liquid-gas (279.43 K, w2 = 0.5359) was 8.92 ± 0.31 mN/m. For the same compound, the surface tension liquid-gas (279.46 K, w2 = 0.3457) was 8.67 ± 0.3 mN/m, the surface tension liquid-gas (279.6 K, w2 = 0.3904) was 8.74 ± 0.3 mN/m and 8.76 ± 0.3 mN/m and the surface tension liquid-gas (281.21 K, w2 = 0.3898) was 8.45 ± 0.3 mN/m and 8.46 ± 0.3 mN/m. For the same compound, the surface tension liquid-gas (281.3 K, w2 = 0.5351) was 8.65 ± 0.3 mN/m and 8.64 ± 0.3 mN/m, the surface tension liquid-gas (281.45 K, w2 = 0.3448) was 8.4 ± 0.3 mN/m and 8.41 ± 0.3 mN/m and the surface tension liquid-gas (281.51 K, w2 = 0.2913) was 8.39 ± 0.3 mN/m. For the same compound, the surface tension liquid-gas (281.54 K, w2 = 0.7224) was 8.9 ± 0.31 mN/m and 8.93 ± 0.31 mN/m, the surface tension liquid-gas (283.11 K, w2 = 0.2907) was 8.2 ± 0.3 mN/m and the surface tension liquid-gas (283.17 K, w2 = 0.389) was 8.23 ± 0.3 mN/m. For the same compound, the surface tension liquid-gas (283.29 K, w2 = 0.7219) was 8.59 ± 0.3 mN/m and 8.61 ± 0.3 mN/m, the surface tension liquid-gas (283.3 K, w2 = 0.5342) was 8.39 ± 0.31 mN/m and 8.4 ± 0.31 mN/m and the surface tension liquid-gas (283.49 K, w2 = 0.3439) was 8.13 ± 0.3 mN/m. For the same compound, the surface tension liquid-gas (284.67 K, w2 = 0.5336) was 8.04 ± 0.3 mN/m and 8.07 ± 0.3 mN/m, the surface tension liquid-gas (285.18 K, w2 = 0.7212) was 8.37 ± 0.3 mN/m and the surface tension liquid-gas (285.19 K, w2 = 0.3882) was 7.93 ± 0.3 mN/m and 7.99 ± 0.3 mN/m. For the same compound, the surface tension liquid-gas (285.24 K, w2 = 0.2898) was 7.93 ± 0.3 mN/m and 7.9 ± 0.3 mN/m, the surface tension liquid-gas (285.46 K, w2 = 0.343) was 7.94 ± 0.3 mN/m and 7.95 ± 0.3 mN/m and the surface tension liquid-gas (286.62 K, w2 = 0.3876) was 7.79 ± 0.3 mN/m. For the same compound, the surface tension liquid-gas (286.86 K, w2 = 0.2891) was 7.75 ± 0.3 mN/m and 7.71 ± 0.3 mN/m, the surface tension liquid-gas (287.47 K, w2 = 0.342) was 7.57 ± 0.3 mN/m and the surface tension liquid-gas (287.63 K, w2 = 0.5322) was 7.69 ± 0.3 mN/m and 7.73 ± 0.3 mN/m. The surface tension liquid-gas (289.31 K, w2 = 0.5314) was 7.44 ± 0.3 mN/m and 7.45 ± 0.3 mN/m, the surface tension liquid-gas (289.33 K, w2 = 0.7197) was 7.78 ± 0.31 mN/m and the surface tension liquid-gas (289.37 K, w2 = 0.288) was 7.41 ± 0.31 mN/m. The surface tension liquid-gas (289.37 K, w2 = 0.3411) was 7.34 ± 0.3 mN/m and 7.38 ± 0.3 mN/m, the surface tension liquid-gas (289.42 K, w2 = 0.3863) was 7.45 ± 0.3 mN/m and the surface tension liquid-gas (289.68 K, w2 = 0.2879) was 7.29 ± 0.31 mN/m. The surface tension liquid-gas (289.89 K, w2 = 0.7195) was 7.55 ± 0.3 mN/m and 7.53 ± 0.3 mN/m, the surface tension liquid-gas (290.16 K, w2 = 0.386) was 7.2 ± 0.31 mN/m and the surface tension liquid-gas (291.25 K, w2 = 0.2872) was 7.12 ± 0.31 mN/m. The surface tension liquid-gas (291.47 K, w2 = 0.34) was 7.14 ± 0.3 mN/m, the surface tension liquid-gas (291.47 K, w2 = 0.5304) was 7.13 ± 0.31 mN/m and 7.18 ± 0.3 mN/m and the surface tension liquid-gas (291.5 K, w2 = 0.3854) was 7.05 ± 0.31 mN/m and 7.03 ± 0.3 mN/m. For the same compound, the surface tension liquid-gas (291.53 K, w2 = 0.2871) was 7.07 ± 0.31 mN/m and 7.05 ± 0.31 mN/m, the surface tension liquid-gas (291.66 K, w2 = 0.3853) was 7.07 ± 0.31 mN/m and 7.11 ± 0.3 mN/m and the surface tension liquid-gas (291.67 K, w2 = 0.5303) was 7.18 ± 0.31 mN/m and 7.16 ± 0.31 mN/m. The surface tension liquid-gas (291.93 K, w2 = 0.7187) was 7.33 ± 0.3 mN/m and 7.35 ± 0.3 mN/m, the surface tension liquid-gas (293.1 K, w2 = 0.2864) was 6.87 ± 0.3 mN/m and the surface tension liquid-gas (293.2 K, w2 = 0.3391) was 6.83 ± 0.3 mN/m and 6.87 ± 0.3 mN/m. The surface tension liquid-gas (293.46 K, w2 = 0.2862) was 6.81 ± 0.3 mN/m and 6.79 ± 0.31 mN/m, the surface tension liquid-gas (293.53 K, w2 = 0.5293) was 6.9 ± 0.3 mN/m and the surface tension liquid-gas (293.53 K, w2 = 0.7181) was 7.06 ± 0.3 mN/m and 7.09 ± 0.3 mN/m. The surface tension liquid-gas (293.8 K, w2 = 0.3843) was 6.67 ± 0.3 mN/m and 6.69 ± 0.3 mN/m.
